Data from ChEMBL document CHEMBL1201862, “PubChem BioAssay data set” (2004).
pEC50: −log10 of the molar value. The source made the active and inactive calls.

Legend:
Bcl-2-related protein A1 = biological target: T1, Bcl-2-related protein A1 (Mus musculus, UniProt Q07440); format: functional;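 also: confirmatory dose–response counterscreen on Bfl-1, used to check hits from a UBC13 polyubiquitin inhibitor campaign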
T1 sequence (Q07440 whole entry): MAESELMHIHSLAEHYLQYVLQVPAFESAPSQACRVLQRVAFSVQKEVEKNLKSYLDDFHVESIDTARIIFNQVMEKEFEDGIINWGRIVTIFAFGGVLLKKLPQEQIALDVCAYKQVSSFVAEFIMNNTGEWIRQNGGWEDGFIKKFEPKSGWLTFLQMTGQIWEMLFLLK

[1] = biological target: T2, Ubiquitin-conjugating enzyme E2 N (Homo sapiens, UniProt P61088); format: functional
T2 sequence (P61088 whole entry): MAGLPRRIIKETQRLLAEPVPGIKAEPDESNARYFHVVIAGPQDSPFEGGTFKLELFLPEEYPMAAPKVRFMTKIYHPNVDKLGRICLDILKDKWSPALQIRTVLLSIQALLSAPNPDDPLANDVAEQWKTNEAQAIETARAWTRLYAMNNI

[2] = biological target: T2, Ubiquitin-conjugating enzyme E2 N; format: functional; remark: listed apart in the source
Mu-type opioid receptor [3] = biological target: T3, Mu-type opioid receptor (Homo sapiens, UniProt P35372); test: HTS Image-Based Screen for Agonists of the MOR Receptor. [Related pubchem assays (depositor defined):AID1777, AID1785, AID1786, AID2133]; format: functional
T3 sequence (P35372 whole entry): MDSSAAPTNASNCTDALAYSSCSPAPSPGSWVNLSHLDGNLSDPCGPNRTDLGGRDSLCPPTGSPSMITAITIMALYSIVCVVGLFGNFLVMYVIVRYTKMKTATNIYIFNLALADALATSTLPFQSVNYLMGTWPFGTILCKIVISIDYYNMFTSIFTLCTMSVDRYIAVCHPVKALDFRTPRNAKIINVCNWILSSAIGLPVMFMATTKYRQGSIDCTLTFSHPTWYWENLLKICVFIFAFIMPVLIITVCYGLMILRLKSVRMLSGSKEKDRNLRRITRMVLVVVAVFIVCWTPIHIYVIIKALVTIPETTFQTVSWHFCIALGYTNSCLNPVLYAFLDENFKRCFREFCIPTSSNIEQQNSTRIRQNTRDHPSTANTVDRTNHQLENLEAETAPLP

Mu-type opioid receptor [4] = biological target: T3, Mu-type opioid receptor; test: MOR antagonists, SAR follow-up, image-based (AID 2420); format: functional;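 also: compounds added before stimulation of receptor with agonist DAMGO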
Mu-type opioid receptor [5] = biological target: T3, Mu-type opioid receptor; test: MOR agonists by imaging, SAR follow-up, image-based (AID 2352); format: functional
[6] = biological target: T4, Kappa-type opioid receptor (Homo sapiens, UniProt P41145); format: functional
T4 sequence (P41145 whole entry): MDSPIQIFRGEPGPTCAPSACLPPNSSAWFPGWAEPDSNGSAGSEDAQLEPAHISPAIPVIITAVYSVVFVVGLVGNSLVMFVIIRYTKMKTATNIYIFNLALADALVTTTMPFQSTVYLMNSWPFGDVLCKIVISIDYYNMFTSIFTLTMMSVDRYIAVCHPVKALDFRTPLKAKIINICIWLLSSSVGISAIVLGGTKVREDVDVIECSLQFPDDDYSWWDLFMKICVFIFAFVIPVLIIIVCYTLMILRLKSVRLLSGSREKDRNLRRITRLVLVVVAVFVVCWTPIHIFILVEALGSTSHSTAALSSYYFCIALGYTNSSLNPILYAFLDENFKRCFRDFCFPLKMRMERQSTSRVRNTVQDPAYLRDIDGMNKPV

[7] = biological target: T5, Delta-type opioid receptor (Homo sapiens, UniProt P41143); test: DOR agonists, SAR follow-up, image-based (AID 2370); format: functional
T5 sequence (P41143 whole entry): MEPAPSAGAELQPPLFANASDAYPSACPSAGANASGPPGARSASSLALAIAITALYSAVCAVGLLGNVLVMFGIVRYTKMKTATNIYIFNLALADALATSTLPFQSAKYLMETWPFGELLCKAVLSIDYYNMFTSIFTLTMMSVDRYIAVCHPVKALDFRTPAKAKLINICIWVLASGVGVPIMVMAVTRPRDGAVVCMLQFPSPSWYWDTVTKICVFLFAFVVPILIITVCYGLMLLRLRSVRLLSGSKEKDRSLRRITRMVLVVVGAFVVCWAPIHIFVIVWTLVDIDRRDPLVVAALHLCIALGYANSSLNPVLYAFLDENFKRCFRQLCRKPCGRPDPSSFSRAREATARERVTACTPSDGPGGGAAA

[8] = biological target: T4, Kappa-type opioid receptor; test: KOR agonist analogs, imaging readout, SAR follow-up, image-based (AID 2359); format: functional
[9] = biological target: T4, Kappa-type opioid receptor; test: SAR analysis of small molecule agonists of the kappa opioid receptor via a luminescent beta-arrestin assay. [Related pubchem assays (depositor defined):AID1777, AID1786, AID1966, AID2133, AID2136, AID2348, AID2352, AID2357, AID2359, AID2370, AID2420, AID2478, AID2491, AID2492, AID2493, AID2497, AID2498, AID2500, AID449737, AID488822, AID488842]; format: functional
[10] = biological target: T4, Kappa-type opioid receptor; test: KOR antagonists by imaging, SAR follow-up, image-based (AID 2348); format: functional
[11] = biological target: T5, Delta-type opioid receptor; test: HTS Image-Based Screen for Agonists of the DOR Receptor. [Related pubchem assays (depositor defined):AID1777, AID1786, AID2133]; format: functional
[12] = biological target: T5, Delta-type opioid receptor; test: HTS Image-Based Screen for Antagonists of the DOR Receptor. [Related pubchem assays (depositor defined):AID1777, AID1785, AID1786, AID2133]; format: functional
[13] = biological target: T5, Delta-type opioid receptor; test: DOR antagonists, SAR follow-up, image-based (AID 2357); format: functional
[14] = biological target: T4, Kappa-type opioid receptor; format: functional; remark: listed apart in the source
[15] = biological target: T6, Alkaline phosphatase, tissue-nonspecific isozyme (Homo sapiens, UniProt P05186); test: TNAP enzyme activators, dose response, selectivity assay for mouse IAP activator project, biochemical, TNAP isozyme, mouse IAP uHTS hits (AID 488880); format: functional
T6 sequence (P05186 whole entry): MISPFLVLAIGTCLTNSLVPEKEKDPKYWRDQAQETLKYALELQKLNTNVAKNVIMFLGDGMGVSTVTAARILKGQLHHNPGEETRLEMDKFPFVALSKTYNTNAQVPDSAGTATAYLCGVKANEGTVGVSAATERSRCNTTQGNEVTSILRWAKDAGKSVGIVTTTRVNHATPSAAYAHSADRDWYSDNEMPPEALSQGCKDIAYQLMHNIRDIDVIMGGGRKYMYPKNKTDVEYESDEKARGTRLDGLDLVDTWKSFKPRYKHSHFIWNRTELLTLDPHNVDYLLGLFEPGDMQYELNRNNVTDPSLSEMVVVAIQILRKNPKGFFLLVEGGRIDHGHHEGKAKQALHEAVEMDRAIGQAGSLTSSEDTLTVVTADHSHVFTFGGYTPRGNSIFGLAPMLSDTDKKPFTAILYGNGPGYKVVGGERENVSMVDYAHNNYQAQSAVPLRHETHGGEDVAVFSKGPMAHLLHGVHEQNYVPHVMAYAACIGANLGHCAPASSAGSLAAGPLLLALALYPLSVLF

Caspase-6 = biological target: T7, Caspase-6 (Homo sapiens, UniProt P55212); test: human caspase-6 inhibitors, dose response, biochemical, VEID-R110 fluorescence, cherry-pick (AID 720632)
T7 sequence (P55212 whole entry): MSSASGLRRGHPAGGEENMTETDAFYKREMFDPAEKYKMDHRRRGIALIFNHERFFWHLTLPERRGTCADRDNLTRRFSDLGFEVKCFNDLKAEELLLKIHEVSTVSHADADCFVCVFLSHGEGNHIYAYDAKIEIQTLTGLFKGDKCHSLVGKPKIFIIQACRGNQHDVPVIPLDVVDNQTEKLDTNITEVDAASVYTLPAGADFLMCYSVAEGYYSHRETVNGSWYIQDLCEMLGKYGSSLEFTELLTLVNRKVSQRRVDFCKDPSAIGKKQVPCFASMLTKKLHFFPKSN

[16] = biological target: Intestinal-type alkaline phosphatase (Mus musculus, UniProt P24822); test: mouse intestinal alkaline phosphatase activators, dose response, biochemical, luminescence, uHTS hits (AID 488783); format: functional
Chain of Intestinal-type alkaline phosphatase (Mus musculus, UniProt P24822) (P24822 whole entry): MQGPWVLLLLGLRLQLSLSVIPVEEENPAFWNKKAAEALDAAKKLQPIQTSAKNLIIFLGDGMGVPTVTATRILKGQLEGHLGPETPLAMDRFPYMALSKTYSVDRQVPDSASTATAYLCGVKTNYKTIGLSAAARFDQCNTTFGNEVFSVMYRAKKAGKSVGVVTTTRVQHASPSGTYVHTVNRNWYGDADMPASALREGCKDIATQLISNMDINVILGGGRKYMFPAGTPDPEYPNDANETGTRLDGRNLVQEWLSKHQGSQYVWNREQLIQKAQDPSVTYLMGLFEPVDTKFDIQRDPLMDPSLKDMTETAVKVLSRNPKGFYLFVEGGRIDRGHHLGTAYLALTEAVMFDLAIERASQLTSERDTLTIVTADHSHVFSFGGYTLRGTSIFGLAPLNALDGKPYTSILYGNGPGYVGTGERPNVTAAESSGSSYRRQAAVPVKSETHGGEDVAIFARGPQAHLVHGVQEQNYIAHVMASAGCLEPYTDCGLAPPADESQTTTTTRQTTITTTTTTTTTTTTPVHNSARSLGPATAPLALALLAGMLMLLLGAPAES

[17] = biological target: Intestinal-type alkaline phosphatase (Homo sapiens, UniProt P09923); test: activation of human intestinal alkaline phosphatase – biochemical, dose response (AID 488873); format: functional
Chain of Intestinal-type alkaline phosphatase (Homo sapiens, UniProt P09923) (P09923 whole entry): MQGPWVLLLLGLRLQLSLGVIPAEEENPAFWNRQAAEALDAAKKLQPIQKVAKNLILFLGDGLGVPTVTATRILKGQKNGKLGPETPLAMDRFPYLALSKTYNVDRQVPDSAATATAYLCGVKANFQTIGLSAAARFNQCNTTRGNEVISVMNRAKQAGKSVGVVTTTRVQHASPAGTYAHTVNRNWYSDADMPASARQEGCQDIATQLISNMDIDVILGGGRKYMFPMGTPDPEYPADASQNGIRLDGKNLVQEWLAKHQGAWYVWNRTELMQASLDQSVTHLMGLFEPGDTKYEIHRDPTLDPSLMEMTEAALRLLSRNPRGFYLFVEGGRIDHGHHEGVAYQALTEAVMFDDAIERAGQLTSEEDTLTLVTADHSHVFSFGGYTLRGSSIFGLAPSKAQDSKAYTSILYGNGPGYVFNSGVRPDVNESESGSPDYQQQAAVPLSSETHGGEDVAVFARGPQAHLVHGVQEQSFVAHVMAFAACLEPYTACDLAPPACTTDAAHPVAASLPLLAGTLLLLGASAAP

[18] = biological target: T8, Replicative DNA helicase DnaB (Mycobacterium tuberculosis, UniProt P9WMR3); test: DnaB intein splicing inhibitors, dose response, biochemical, cell-free fluorescence (AID 449749); format: functional
T8 sequence (P9WMR3 whole entry): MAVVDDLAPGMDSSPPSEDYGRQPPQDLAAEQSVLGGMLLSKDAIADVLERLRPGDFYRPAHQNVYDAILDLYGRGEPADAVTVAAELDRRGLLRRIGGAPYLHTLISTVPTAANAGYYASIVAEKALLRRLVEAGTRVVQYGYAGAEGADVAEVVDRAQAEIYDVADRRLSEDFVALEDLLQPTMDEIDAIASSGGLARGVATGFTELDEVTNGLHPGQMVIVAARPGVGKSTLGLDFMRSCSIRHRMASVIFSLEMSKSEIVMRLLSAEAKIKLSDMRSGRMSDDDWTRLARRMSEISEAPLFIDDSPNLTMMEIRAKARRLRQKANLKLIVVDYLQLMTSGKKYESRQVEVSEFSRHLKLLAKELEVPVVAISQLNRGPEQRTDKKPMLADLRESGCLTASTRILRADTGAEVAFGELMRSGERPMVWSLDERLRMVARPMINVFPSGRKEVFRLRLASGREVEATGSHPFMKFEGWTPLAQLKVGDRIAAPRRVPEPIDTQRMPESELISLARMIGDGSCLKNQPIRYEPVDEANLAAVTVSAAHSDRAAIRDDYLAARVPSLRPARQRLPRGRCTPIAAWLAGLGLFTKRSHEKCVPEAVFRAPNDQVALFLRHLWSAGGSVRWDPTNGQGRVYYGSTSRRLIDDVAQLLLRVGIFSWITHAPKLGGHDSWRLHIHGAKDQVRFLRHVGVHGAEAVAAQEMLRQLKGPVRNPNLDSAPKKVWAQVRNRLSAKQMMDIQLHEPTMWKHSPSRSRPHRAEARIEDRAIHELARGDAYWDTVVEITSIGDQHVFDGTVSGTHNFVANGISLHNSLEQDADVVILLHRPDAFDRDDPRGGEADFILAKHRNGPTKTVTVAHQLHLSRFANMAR

[19] = biological target: T9, Orexin/Hypocretin receptor type 1 (Homo sapiens, UniProt O43613); test: Homogeneous Time Resolved Fluorescence (HTRF)-based cell-based high throughput dose response assay for antagonists of the orexin 1 receptor (OX1R; HCRTR1). [Related pubchem assays (depositor defined):AID434989, AID435008, AID463079, AID485270, AID492963, AID492964, AID492965, AID493232, AID504717, AID504718]; format: functional
T9 sequence (O43613 whole entry): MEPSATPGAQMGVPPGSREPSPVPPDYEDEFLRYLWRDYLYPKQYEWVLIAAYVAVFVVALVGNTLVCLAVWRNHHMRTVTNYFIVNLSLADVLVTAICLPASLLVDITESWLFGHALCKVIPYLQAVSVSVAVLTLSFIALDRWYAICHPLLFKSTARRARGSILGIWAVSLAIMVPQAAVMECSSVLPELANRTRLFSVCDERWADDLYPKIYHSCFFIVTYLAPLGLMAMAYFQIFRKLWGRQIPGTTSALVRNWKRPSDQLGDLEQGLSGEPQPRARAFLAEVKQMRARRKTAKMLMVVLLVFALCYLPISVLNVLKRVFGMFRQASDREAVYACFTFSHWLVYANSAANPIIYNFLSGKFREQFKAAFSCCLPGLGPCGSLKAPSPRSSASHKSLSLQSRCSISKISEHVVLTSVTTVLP

[20] = (§1) Counterscreen for antagonists of the orexin 1 receptor (OX1R; HCRTR1): Fluorescence-based cell-based high throughput dose response assay to identify antagonists of the parental CHO cell line. [Related pubchem assays (depositor defined):AID434989, AID435008, AID463079, AID485270, AID492963, AID492964, AID492965, AID493232, AID504699, AID504701]; format: functional
CHO-K1 = test: as §1, with “Homogeneous time resolved fluorescence (HTRF)-based” for “Fluorescence-based”, “cell-based” for “cell-based high throughput”, “CHO-K1” for “CHO”; format: functional; details: Cricetulus griseus;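 also: potency for inhibition of ATP-stimulated IP1 production as antagonists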
Protein RecA = biological target: T10, Protein RecA (Mycobacterium tuberculosis, UniProt P9WHJ3); test: Fluorescence Cell-Free Homogeneous Dose Retest to Identify Inhibitors of RecA-Intein Splicing Activity. [Related pubchem assays (depositor defined):AID2097, AID2223, AID489010, AID492950]; format: functional
T10 sequence (P9WHJ3 whole entry): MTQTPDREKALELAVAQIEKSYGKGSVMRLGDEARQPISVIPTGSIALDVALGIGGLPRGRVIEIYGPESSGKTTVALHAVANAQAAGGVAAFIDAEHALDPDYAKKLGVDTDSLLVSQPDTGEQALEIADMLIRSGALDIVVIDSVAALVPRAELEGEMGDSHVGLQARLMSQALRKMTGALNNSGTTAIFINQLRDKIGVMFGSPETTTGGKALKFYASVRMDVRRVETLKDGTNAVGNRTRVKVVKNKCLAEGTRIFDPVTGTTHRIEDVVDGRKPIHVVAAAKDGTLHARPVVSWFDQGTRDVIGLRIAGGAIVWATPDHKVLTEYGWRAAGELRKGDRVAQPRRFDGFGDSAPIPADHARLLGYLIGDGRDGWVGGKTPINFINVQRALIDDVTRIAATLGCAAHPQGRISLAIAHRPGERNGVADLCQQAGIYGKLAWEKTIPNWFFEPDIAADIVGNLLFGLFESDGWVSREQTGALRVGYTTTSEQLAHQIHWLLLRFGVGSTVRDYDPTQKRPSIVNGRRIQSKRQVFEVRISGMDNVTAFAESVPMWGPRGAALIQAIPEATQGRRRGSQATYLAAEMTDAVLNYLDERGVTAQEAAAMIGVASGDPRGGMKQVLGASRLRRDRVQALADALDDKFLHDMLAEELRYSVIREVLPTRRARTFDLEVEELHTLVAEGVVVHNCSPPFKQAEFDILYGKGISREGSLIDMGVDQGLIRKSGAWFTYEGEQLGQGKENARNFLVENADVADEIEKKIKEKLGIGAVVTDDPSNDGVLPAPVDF

[21] = biological target: T9, Orexin/Hypocretin receptor type 1; test: Fluorescence-based cell-based high throughput dose response assay for antagonists of the orexin 1 receptor (OX1R; HCRTR1). [Related pubchem assays (depositor defined):AID434989, AID435008, AID463079, AID485270, AID492963, AID492964, AID492965, AID493232, AID504717, AID504718]; format: functional
[22] = biological target: Signal transducer and activator of transcription 3 (Homo sapiens, UniProt P40763); test: STAT3 inhibitors, late-stage profile, late-stage follow-up, cell-based, STAT1 panel, qPCR, cytotoxicity, panel member STAT3 Inhibition (AID 2078)
Chain of Signal transducer and activator of transcription 3 (P40763 whole entry): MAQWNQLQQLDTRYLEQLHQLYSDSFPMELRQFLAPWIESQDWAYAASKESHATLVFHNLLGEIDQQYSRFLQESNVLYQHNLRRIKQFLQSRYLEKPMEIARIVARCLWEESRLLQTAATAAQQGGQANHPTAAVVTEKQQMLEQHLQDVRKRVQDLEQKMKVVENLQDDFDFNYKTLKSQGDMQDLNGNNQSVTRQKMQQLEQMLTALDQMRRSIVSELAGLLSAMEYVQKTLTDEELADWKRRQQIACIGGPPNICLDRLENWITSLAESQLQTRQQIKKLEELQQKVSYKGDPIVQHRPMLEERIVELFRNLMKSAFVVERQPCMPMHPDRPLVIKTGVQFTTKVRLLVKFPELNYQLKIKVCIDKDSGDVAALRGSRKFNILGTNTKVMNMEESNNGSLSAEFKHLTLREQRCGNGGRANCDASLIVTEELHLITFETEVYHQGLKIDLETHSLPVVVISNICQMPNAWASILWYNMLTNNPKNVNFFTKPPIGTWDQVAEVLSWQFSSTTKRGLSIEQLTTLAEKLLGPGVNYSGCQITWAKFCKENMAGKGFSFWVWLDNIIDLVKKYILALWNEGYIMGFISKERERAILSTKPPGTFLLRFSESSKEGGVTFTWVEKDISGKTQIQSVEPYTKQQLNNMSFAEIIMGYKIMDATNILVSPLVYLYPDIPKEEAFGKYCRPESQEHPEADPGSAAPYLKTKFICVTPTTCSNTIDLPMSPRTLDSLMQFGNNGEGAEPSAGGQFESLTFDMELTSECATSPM

[23] = biological target: Signal transducer and activator of transcription 1-alpha/beta (Homo sapiens, UniProt P42224); test: STAT3 inhibitors, late-stage profile, late-stage follow-up, cell-based, STAT1 panel, qPCR, cytotoxicity, panel member STAT1 Inhibition (AID 2078)
Chain of Signal transducer and activator of transcription 1-alpha/beta (P42224 whole entry): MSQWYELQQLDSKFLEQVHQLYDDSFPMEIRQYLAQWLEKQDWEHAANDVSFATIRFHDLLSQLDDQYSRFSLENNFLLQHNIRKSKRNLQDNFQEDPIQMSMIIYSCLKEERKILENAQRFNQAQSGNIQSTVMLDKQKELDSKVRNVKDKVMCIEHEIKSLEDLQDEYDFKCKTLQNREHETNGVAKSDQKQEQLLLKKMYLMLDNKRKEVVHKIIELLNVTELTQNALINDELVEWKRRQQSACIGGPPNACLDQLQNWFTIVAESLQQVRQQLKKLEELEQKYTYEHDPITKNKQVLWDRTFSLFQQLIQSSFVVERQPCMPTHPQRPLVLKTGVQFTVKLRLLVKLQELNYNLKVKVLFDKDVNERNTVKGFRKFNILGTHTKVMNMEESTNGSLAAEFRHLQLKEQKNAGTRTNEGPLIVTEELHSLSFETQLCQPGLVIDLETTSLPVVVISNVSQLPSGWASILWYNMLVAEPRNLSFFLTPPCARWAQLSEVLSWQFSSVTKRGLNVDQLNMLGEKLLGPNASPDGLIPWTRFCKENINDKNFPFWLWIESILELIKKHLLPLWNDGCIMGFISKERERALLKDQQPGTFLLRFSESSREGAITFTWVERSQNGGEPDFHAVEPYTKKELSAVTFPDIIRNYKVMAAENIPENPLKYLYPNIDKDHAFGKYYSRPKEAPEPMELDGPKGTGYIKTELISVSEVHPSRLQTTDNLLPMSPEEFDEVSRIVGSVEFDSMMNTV

CCOC(=O)c1nn(-c2ccccc2)c(=O)cc1OCC(=O)Nc1ccccc1OCC
IC50 (Bcl-2-related protein A1): > 20 µM (inactive)
IC50 [1]: 14.9 µM (active)
IC50 [2]: > 20 µM (inactive)

C(=C\c1ccccc1)/CSc1nnc(-c2ccccn2)n1Cc1ccco1
EC50 (Mu-type opioid receptor [3]): > 32 µM (inactive)
IC50 (Mu-type opioid receptor [4]): > 32 µM (inactive)
EC50 (Mu-type opioid receptor [5]): > 32 µM (inactive)
pEC50 [6]: 5.28
EC50 [7]: > 32 µM (inactive)
EC50 [8]: 1.43 µM (active)
EC50 [9]: 2.22 µM (active)
IC50 [10]: > 32 µM (inactive)
EC50 [11]: > 32 µM (inactive)
IC50 [12]: > 32 µM (inactive)
IC50 [13]: > 32 µM (inactive)
pEC50 [14]: 5.50

O=C(COC(=O)c1ccc(Br)o1)Nc1ncc([N+](=O)[O-])s1
EC50 [15]: 85.8 µM (active)
AC50 (Caspase-6): 8.5 µM (active)
EC50 [16]: 39.9 µM (active)
EC50 [17]: 68.4 µM (active)

COc1ccc(S(=O)(=O)Nc2c(O)ccc3ccccc23)cc1OC
AC50 [18]: 5.46 µM (active)
IC50 [19]: 3.15 µM (active)
IC50 [20]: > 49.8 µM (inactive)
IC50 (CHO-K1): 27 µM (inactive)
EC50 (Protein RecA): 2.85 µM (active)
IC50 [21]: > 16.6 µM (inactive)

O=C(c1ccc(F)cc1)C1CCN(c2ncnc3sccc23)CC1
IC50 [22]: 1.68 µM (active)
IC50 [23]: > 55.7 µM (inactive)
